Legend:
[1] = Hydrolysis of epithiazide to hydroxyhydrothiazide in aqueous phosphate buffer; type: physicochemical; conditions: 0.067 m phosphate buffer, pH=7, 37°C, 0.067 M aqueous phosphate buffer, read-out: epithiazide cleaved into hydroxyhydrothiazide
Experimental: Figure 1: Hydrolysis of epithiazide to hydroxyhydrothiazide under various temperatures and pH in a 0.067 M phosphate buffer.
Epithiazide was contacted with an aqueous phosphate buffer of 0.067 M at two different temperatures (RT and 37°C), at different pHs, ranging from 5,2 to 13.

[2] = Bioavailability study of epithiazide in healthy volunteers; type: in vivo
[3] = pKa of isolated hydroxyhydrothiazide; type: physicochemical; conditions: isolated and purified product
Experimental: The hydroxyhydrothiazide was synthesised by the hydrolysis of epithiazide. Conversion to hydroxyhydrothiazide was completed in 72 hours at 37 °C in a 0.067 M phosphate buffer.

[4] = Intravenous administration to dogs: elimination and urine production; type: in vivo; conditions: 0.08-0.4 mg/kg
Experimental: The pharmacotherapeutic activity of the hydroxyhydrothiazides has been evaluated. The natriuretic an/or diuretic activity has been determined by testing on animals and healthy volunteers.
The elimination from the body was monitored for 48 hours. […] The diuretic effect was monitored by measuring the urine production.

[5] = after administration of a suitable dose of epithiazide

| degraded at 10 h [1] | detection in the plasma [2, 5] | detection in the urine [2, 5] | pKa [3] | distribution of the compound throughout the body [4] | half-life compared with conventional thiazide-based diuretics such as epithiazide and hydrochlorothiazide ([4]; elimination monitored for 48 hours) | biological half-life (relative to epithiazide) ([2]; compound found after administration of epithiazide) | SMILES | diuretic effect (urine production) [4] |
| --- | --- | --- | --- | --- | --- | --- | --- | --- |
| > 80% | no epithiazide could be detected | detected | – | – | – | – | NS(=O)(=O)c1cc2c(cc1Cl)NC(CSCC(F)(F)F)NS2(=O)=O (centres unmarked) [epithiazide] | – |
| – | – | – | 9.5 | rapid distribution | about twice as long | longer biological half-life | NS(=O)(=O)c1cc2c(cc1Cl)NC(O)NS2(=O)=O (centres unmarked) [hydroxyhydrothiazide] | instant diuretic effect |

— patent EP1132382A1, “3-Oxy-7-sulfamyl-3,4-dihydro-1,2,4-benzothiadazine-1,1-dioxide derivatives having diuretic and/or natriuretic activity” (Farma Invent B.V., priority 2000, dated 2001)
